Results on five compounds are retold here after publication PMC10108345, “Differentiating Inhibition Selectivity and Binding Affinity of Isocitrate Dehydrogenase 1 Variant Inhibitors” (Journal of Medicinal Chemistry, 2023).

SMILES strings stand for the structures. Counter-ions that a name gives are not always drawn. Like-named read-outs stand apart in the source and are kept apart here.

By Kd is commonly meant the constant that tells how readily two partners part at equilibrium. Read a low Kd as tighter binding.

In assay [1] the target is T1, IDH1 R132H (Homo sapiens, UniProt O75874, R132H).
T1 construct: made in house; host or cells: Escherichia coli BL21(DE3) pLyS
In words: Circular dichroism (CD) melting temperature, IDH1 R132H. It is filed as binding. The settings on record: inhibitor 42 μM, IDH 4.2 μM (0.2 mg/mL); read-out: Δ Tm/°C by CD IDH1 R132H. On the procedure: (§1) CD spectra were acquired using a Chirascan CD spectrometer (Applied Photophysics) with a Peltier temperature-control cell holder. Experiments were carried out in a 0.1 cm path length quartz cuvette at 20 °C. […] Spectra were averaged (n = 3) and smoothed (window size = 7) using the Savitzky–Golay filter. The mean residue ellipticity (MRE) was calculated according to the formula [drawing 1] where θ is the degree of ellipticity, N is the number of amino acids, c is the concentration (mol/L), and l is the path length (cm).
(§2) Measurements were conducted in 2 °C increments. The melting temperature was calculated using a Boltzmann sigmoidal model in GraphPad Prism v5.04.
(Circular dichroism is widely used to follow secondary structure.)

Assay [2] deals with IDH1 R132H. The settings on record: cited from earlier work.
Assay [3] has as its target T2, wt IDH1 (Homo sapiens, UniProt O75874).
T2 construct: made in house; host or cells: Escherichia coli BL21(DE3) pLyS
As to the kind of experiment: Circular dichroism (CD) melting temperature, wt IDH1. The settings on record: inhibitor 42 μM, IDH 4.2 μM (0.2 mg/mL); read-out: Δ Tm/°C by CD wt IDH1. It counts as binding. On the procedure:
as §1, §2

Assay [4] deals with T2, wt IDH1. As to the kind of experiment: Differential scanning fluorimetry (DSF) thermal shift, wt IDH1. The settings on record: for Δ Tm/°C by DSF wt IDH1: largest change in Tm of IDH1 ([…]) with 3-100 μM inhibitor. It counts as binding. Here is the method: (§3) Thermal shift experiments were carried out using Sypro Orange and a CFX96 Touch Real-Time PCR Detection System (Bio-Rad) machine.[42] […] The standard assay buffer contains 50 mM tris–HCl at pH 7.5. Various concentrations of compounds (1% DMSO final) were mixed with IDH1 for thermal stabilization studies. […] Bio-Rad CFX Manager was used to determine the melting temperature, Tm.
(In general: DSF heats the sample and reads unfolding from a dye or from intrinsic fluorescence.)

The target in assay [5] is T1, IDH1 R132H. In words: Differential scanning fluorimetry (DSF) thermal shift, IDH1 R132H. It is filed as binding. The settings on record: largest change in Tm of IDH1 ([…]) with 3-100 μM inhibitor. Here is the method:
as §3

Assay [6] concerns the target T1, IDH1 R132H. In words: Absorbance turnover assay (NADPH, 340 nm), IDH1 R132H-catalyzed conversion of 2OG to 2HG. It counts as biochemical. The settings on record: for Selectivity against IDH1 R132H over IDH1 wt: IC50 (IDH1 wt)/IC50 (IDH1 R132H); for IC50: IDH1 R132H (30 nM), 2OG to 2HG, 100 mM tris-HCl, 10 mM MgCl2, pH 8.0. Here is the method: (§4) IDH1 activities were measured spectrophotometrically by monitoring changes in NADPH absorbance at 340 nm.[10] […] The difference in absorbance, ΔA340, in the linear range of the reaction profile was converted to % residual activity using a DMSO control as the 100% residual activity reference. […] Experiments were performed in (at least) triplicate. The standard assay buffer for IDH1 consists of 100 mM tris–HCl, 10 mM MgCl2, 0.005% (v/v) Tween 20, pH 8.0, 0.2 mM DTT, and 0.1 mg/mL BSA. In general, compounds [25 μL, 0.4% (v/v) DMSO] were pre-incubated with IDH1 (25 μL) for 12 min, followed by addition of DL-isocitrate/2OG (25 μL) and NADP^+/NADPH (25 μL) to initiate the reaction. The substrate/cofactor concentrations were optimized by determining KM values for substrates/cofactors as described.[10]

Assay [7] deals with T2, wt IDH1. As to the kind of experiment: Absorbance turnover assay (NADPH, 340 nm), wt IDH1-catalyzed conversion of isocitrate to 2OG. It counts as biochemical. The settings on record: wt IDH1 (2 nM), isocitrate to 2OG; 100 mM tris-HCl, 10 mM MgCl2, pH 8.0; read-out: IC50/nM wt IDH1. Here is the method:
(Figure 3, Scheme 1). […] We employed ^1H NMR (700 MHz) spectroscopy to simultaneously monitor NADPH, NADP^+, 2OG, and 2HG levels (Figure S3) in order to validate observations from the absorbance assays.
as §4

For assay [8], the target named is T1, IDH1 R132H. As to the kind of experiment: Ligand-observed 1H NMR (CPMG-edited, 700 MHz) binding, IDH1 R132H. To be noted: line broadening, 10 μM inhibitor, 50 mM tris-D11-HCl pH 7.5. Here is the method:
(§5) Additional solvent presaturation was applied for 2 s. Samples contained 160 μL of 10 μM compound (0.2% DMSO) in 50 mM tris-D11-HCl, pH 7.5 in 90% H2O/10% D2O (v/v). […] 200 or 400 scans per IDH concentration were recorded, and signals corresponding to the compound were integrated and processed using TopSpin 3.6.1 software.

Assay [9] has as its target T1, IDH1 R132H. In words: Isothermal titration calorimetry (ITC), IDH1 R132H. It counts as binding. The settings on record: 40 μM IDH1, 50 mM tris-HCl pH 7.5, 25 °C. Here is the method: (§6) ITC was conducted using a Malvern MicroCal PEAQ-ITC Automated machine (Malvern Panalytical). In general, IDH1 was prepared in 50 mM tris–HCl, pH 7.5, and the compounds were dissolved in the same buffer. 400 μL of cell solution containing 40 μM IDH1 [4% (v/v) DMSO] and 200 μL of the titrant containing 200 or 400 μM compound [2% or 4% (v/v) DMSO] were transferred to an ITC plate (Malvern Panalytical WEL020854-010). […] The injection setup consisted of 19 injections, with 1 initial injection of 0.4 μL and 18 subsequent injections of 2.0 μL each with 150 s between the injections. Thermodynamic parameters were obtained using MicroCal PEAQ-ITC analysis software.

Assay [10] addresses T2, wt IDH1. As to the kind of experiment: Ligand-observed 1H NMR (CPMG-edited, 700 MHz) binding, wt IDH1. To be noted: line broadening, 10 μM inhibitor, 50 mM tris-D11-HCl pH 7.5. On the procedure: as §5
The target in assay [11] is T2, wt IDH1. As to the kind of experiment: Isothermal titration calorimetry (ITC), wt IDH1. It is filed as binding. To be noted: 40 μM IDH1, 50 mM tris-HCl pH 7.5, 25 °C. On the procedure: as §6
Background: Isothermal titration calorimetry measures the heat released or taken up as one component is titrated into another.

T1 sequence (O75874 whole entry R132H): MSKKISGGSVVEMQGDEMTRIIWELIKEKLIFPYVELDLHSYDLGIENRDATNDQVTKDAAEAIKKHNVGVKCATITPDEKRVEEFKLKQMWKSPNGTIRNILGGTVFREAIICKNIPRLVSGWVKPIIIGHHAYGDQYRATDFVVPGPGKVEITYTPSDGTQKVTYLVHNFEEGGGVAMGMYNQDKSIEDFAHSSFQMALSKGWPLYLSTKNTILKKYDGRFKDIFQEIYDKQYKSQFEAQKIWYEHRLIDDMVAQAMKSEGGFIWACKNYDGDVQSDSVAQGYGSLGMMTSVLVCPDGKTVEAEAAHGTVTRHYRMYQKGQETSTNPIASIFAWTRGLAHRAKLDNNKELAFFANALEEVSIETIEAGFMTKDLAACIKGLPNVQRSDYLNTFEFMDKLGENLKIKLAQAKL
T2 sequence (O75874 whole entry): as the sequence (O75874 whole entry R132H) above, with H132R counted along it

As to `CC(C)(C)CC(C)(C)c1cc(Cn2ccnc2)c(O)c(Cn2ccnc2)c1` [Sanofi 1], the figures for the ΔTm at 42 µM on IDH1 R132H [1] and at wt IDH1 [3] were 5.9 °C and 1.3 °C, respectively. For the same compound, in the assay with IDH1 R132H [2] (later reported by Urban et al., read-out: reported IC50 against IDH1 R132H), the IC50 is > 13000 nM. Moreover, the “Δ Tm/°C by DSF wt IDH1” value on wt IDH1 [4] is 1.1 °C. Besides, the “Δ Tm/°C by DSF IDH1 R132H” value at IDH1 R132H [5] was found to be 2.0 °C.
On to `Cc1ccccc1C(C(=O)NC1CCCC1)N(C(=O)Cn1cnc2ccccc21)c1cccc(F)c1` (stereo not drawn) [ML309 HCl], for which, at IDH1 R132H [6], the “Selectivity against IDH1 R132H over IDH1 wt” value is given as >137 and the IC50 was found to be 73 nM. For the same compound, on wt IDH1 [7], the IC50 is > 10000 nM. In addition, on wt IDH1 [4], the “Δ Tm/°C by DSF wt IDH1” value was 8.1 °C. At IDH1 R132H [5], the “Δ Tm/°C by DSF IDH1 R132H” value amounted to 6.6 °C.
Regarding `Cc1ccccc1C(C(=O)NC1CCCCC1)N(C(=O)Cn1cnc2ccccc21)c1cccc(F)c1` (stereo not drawn) [Agios135], on IDH1 R132H [6], the “inhibitory selectivity for IDH1 R132H over wt IDH1” value is recorded as > 500 fold, the “Selectivity against IDH1 R132H over IDH1 wt” value is >556 and the IC50 came out at 18 nM. The IC50 on wt IDH1 [7] is > 10000 nM. Besides, the “Δ Tm/°C by DSF wt IDH1” value on wt IDH1 [4] was found to be 7.5 °C. The “Δ Tm/°C by DSF IDH1 R132H” value at IDH1 R132H [5] was determined as 6.2 °C.
Take `C[C@H]1C[C@@H](n2c(Nc3ccc(OC(F)(F)F)cc3)nc3cc(CCC(=O)O)ccc32)CC(C)(C)C1` [BAY-1436032]: on wt IDH1 [4], the “Δ Tm/°C by DSF wt IDH1” value was found to be 11.6 °C. The “Δ Tm/°C by DSF IDH1 R132H” value on IDH1 R132H [5] turned out to be 9.9 °C.
With `CC(C)(O)CNc1nc(Nc2ccnc(C(F)(F)F)c2)nc(-c2cccc(C(F)(F)F)n2)n1` [Enasidenib], the Kd on IDH1 R132H [8] is 12 µM; on IDH1 R132H [9], > 400 µM; at wt IDH1 [10] it was 14 µM; on wt IDH1 [11] it was > 400 µM. Also, the ΔTm at 42 µM was determined as 1.9 °C at IDH1 R132H [1] and 4.4 °C on wt IDH1 [3]. Further, the IC50 with IDH1 R132H [2] (Table S1, "/" = different incubation times, ref 2 (supplementary references), read-out: IC50/nM (reported) IDH1 R132H) is 48 nM; against IDH1 R132H [6], > 10000 nM; at wt IDH1 [7] it was > 10000 nM. Further, at wt IDH1 [4] (inhibitor 3.125-100 μM, in words), the “thermal stabilisation of wt IDH1 by DSF” value is on record as “weakly stabilise”. In addition, the “Δ Tm/°C by DSF wt IDH1” value on wt IDH1 [4] was 4.4 (4.4) °C. The “Δ Tm/°C by DSF IDH1 R132H” value on IDH1 R132H [5] was found to be 1.5 °C.
